Measurements taken from patent US20110144079A1, “ANTIMICROBIAL SYSTEM” (priority 2008, published 2011).

system: S. aureus PIII; experiment: Broth microdilution MIC; type: cell-based; details: not given
Method: (§1) Broth microdilution tests were performed according to NCCLS guidelines. Serial two-fold dilutions of each imidazolium salt (from an original working solution which had been 0.22 μm sterile filtered) in Mueller-Hinton Broth (MHB) (100 μl) were prepared in 96-well micro-titre plates over the range 0.0000625-1% w/v. The inoculum to be tested was prepared by adjusting the turbidity of an actively overnight growing broth culture in MHB to an optical density at 550 nm equivalent to 1×10^8 CFU/ml. The suspension was further diluted to provide a final inoculum density of 2×10^5 CFU/ml in MHB as verified by total viable count. The inoculum to be tested (100 μl, 2×10^5 CFU ml^−1) was added to each well of the microdilution trays which were incubated aerobically for 24 h at 37° C. Positive and negative growth controls were included in every assay (6 replicates). After determining the MICs, minimum bactericidal concentrations (MBCs) were determined by spreading 20 μl of suspension from wells showing no growth onto MHA plates, which were then incubated for 24 h and examined for 99.9% killing.

Structure (SMILES)	MIC [µM]
CCCCCCCCCC[n+]1cccc2ccccc21.[Br-] [1-alkyl-3-quinolinium bromides 10]	111.5
CCCCCCCCCCCCCCCC[n+]1cccc2ccccc21.[Br-] [1-alkyl-3-quinolinium bromides 16]	70.24

system: S. epidermidis ATCC 35984; experiment: Broth microdilution MIC/MBC; type: cell-based; details: S. epidermidis ATCC 35984, 99.9% killing
Method: as §1

Structure (SMILES)	MBC [µM]
CCCCCCCCCC[n+]1cccc2ccccc21.[Br-] [1-alkyl-3-quinolinium bromides 10]	111.48
CCCCCCCCCCCCCCCC[n+]1cccc2ccccc21.[Br-] [1-alkyl-3-quinolinium bromides 16]	35.12

same assay, conditions: S. epidermidis ATCC 35984, 24 h at 37° C.

Structure (SMILES)	MIC [µM]
CCCCCCCCCC[n+]1cccc2ccccc21.[Br-] [1-alkyl-3-quinolinium bromides 10]	55.74
CCCCCCCCCCCCCCCC[n+]1cccc2ccccc21.[Br-] [1-alkyl-3-quinolinium bromides 16]	35.12

system: P. mirabilis NCTC 12442; experiment: Broth microdilution MIC/MBC; type: cell-based; details: P. mirabilis NCTC 12442, 99.9% killing
Method: as §1

Structure (SMILES)	MBC [µM]
CCCCCCCCCC[n+]1cccc2ccccc21.[Br-] [1-alkyl-3-quinolinium bromides 10]	167.22

same assay, conditions: P. mirabilis NCTC 12442, 24 h at 37° C.

Structure (SMILES)	MIC [µM]
CCCCCCCCCC[n+]1cccc2ccccc21.[Br-] [1-alkyl-3-quinolinium bromides 10]	111.5
CCCCCCCCCCCCCCCC[n+]1cccc2ccccc21.[Br-] [1-alkyl-3-quinolinium bromides 16]	70.24

system: E. coli NCTC 8196; experiment: Broth microdilution MIC/MBC; type: cell-based; details: E. coli NCTC 8196, 99.9% killing
Method: as §1

Structure (SMILES)	MBC [µM]
CCCCCCCCCC[n+]1cccc2ccccc21.[Br-] [1-alkyl-3-quinolinium bromides 10]	167.22
CCCCCCCCCCCCCCCC[n+]1cccc2ccccc21.[Br-] [1-alkyl-3-quinolinium bromides 16]	70.24

same assay, conditions: E. coli NCTC 8196, 24 h at 37° C.

Structure (SMILES)	MIC [µM]
CCCCCCCCCC[n+]1cccc2ccccc21.[Br-] [1-alkyl-3-quinolinium bromides 10]	55.74
CCCCCCCCCCCCCCCC[n+]1cccc2ccccc21.[Br-] [1-alkyl-3-quinolinium bromides 16]	35.12

system: S. aureus ATCC 29213; experiment: Broth microdilution MIC/MBC; type: cell-based; details: S. aureus ATCC 29213, 99.9% killing
Method: as §1

Structure (SMILES)	MBC [µM]
CCCCCCCCCC[n+]1cccc2ccccc21.[Br-] [1-alkyl-3-quinolinium bromides 10]	111.48
CCCCCCCCCCCCCCCC[n+]1cccc2ccccc21.[Br-] [1-alkyl-3-quinolinium bromides 16]	70.24

same assay, conditions: S. aureus ATCC 29213, 24 h at 37° C.

Structure (SMILES)	MIC [µM]
CCCCCCCCCC[n+]1cccc2ccccc21.[Br-] [1-alkyl-3-quinolinium bromides 10]	111.5
CCCCCCCCCCCCCCCC[n+]1cccc2ccccc21.[Br-] [1-alkyl-3-quinolinium bromides 16]	70.24

system: P. aeruginosa PA01; experiment: Broth microdilution MIC/MBC; type: cell-based; details: P. aeruginosa PA01, 99.9% killing
Method: as §1

Structure (SMILES)	MBC [µM]
CCCCCCCCCC[n+]1cccc2ccccc21.[Br-] [1-alkyl-3-quinolinium bromides 10]	446

same assay, conditions: P. aeruginosa PA01, 24 h at 37° C.; read-out: MIC

Structure (SMILES)	MIC [µM]
CCCCCCCCCC[n+]1cccc2ccccc21.[Br-] [1-alkyl-3-quinolinium bromides 10]	223
CCCCCCCCCCCCCCCC[n+]1cccc2ccccc21.[Br-] [1-alkyl-3-quinolinium bromides 16]	70.24

system: C. tropicalis NCTC 7393; experiment: Broth microdilution MIC/MBC; type: cell-based; details: C. tropicalis NCTC 7393, 99.9% killing
Method: as §1

Structure (SMILES)	MBC [µM]
CCCCCCCCCC[n+]1cccc2ccccc21.[Br-] [1-alkyl-3-quinolinium bromides 10]	111.48
CCCCCCCCCCCCCCCC[n+]1cccc2ccccc21.[Br-] [1-alkyl-3-quinolinium bromides 16]	70.24

same assay, conditions: C. tropicalis NCTC 7393, 24 h at 37° C.

Structure (SMILES)	MIC [µM]
CCCCCCCCCC[n+]1cccc2ccccc21.[Br-] [1-alkyl-3-quinolinium bromides 10]	55.74
CCCCCCCCCCCCCCCC[n+]1cccc2ccccc21.[Br-] [1-alkyl-3-quinolinium bromides 16]	35.12

system: S. epidermidis ATCC 12228; experiment: Broth microdilution MIC/MBC; type: cell-based; details: S. epidermidis ATCC 12228, 99.9% killing
Method: as §1

Structure (SMILES)	MBC [µM]
CCCCCCCCCC[n+]1cccc2ccccc21.[Br-] [1-alkyl-3-quinolinium bromides 10]	111.48
CCCCCCCCCCCCCCCC[n+]1cccc2ccccc21.[Br-] [1-alkyl-3-quinolinium bromides 16]	35.12

same assay, conditions: S. epidermidis ATCC 12228, 24 h at 37° C.

Structure (SMILES)	MIC [µM]
CCCCCCCCCC[n+]1cccc2ccccc21.[Br-] [1-alkyl-3-quinolinium bromides 10]	55.74
CCCCCCCCCCCCCCCC[n+]1cccc2ccccc21.[Br-] [1-alkyl-3-quinolinium bromides 16]	35.12

system: E-MRSA 15; experiment: Broth microdilution MIC/MBC; type: cell-based; details: E-MRSA 15, 99.9% killing
Method: as §1

Structure (SMILES)	MBC [µM]
CCCCCCCCCC[n+]1cccc2ccccc21.[Br-] [1-alkyl-3-quinolinium bromides 10]	111.48
CCCCCCCCCCCCCCCC[n+]1cccc2ccccc21.[Br-] [1-alkyl-3-quinolinium bromides 16]	70.24

same assay, conditions: E-MRSA 15, 24 h at 37° C.

Structure (SMILES)	MIC [µM]
CCCCCCCCCC[n+]1cccc2ccccc21.[Br-] [1-alkyl-3-quinolinium bromides 10]	55.74
CCCCCCCCCCCCCCCC[n+]1cccc2ccccc21.[Br-] [1-alkyl-3-quinolinium bromides 16]	35.12

system: B. cereus; experiment: Broth microdilution MIC/MBC; type: cell-based; details: 99.9% killing
Method: as §1

Structure (SMILES)	MBC [µM]
CCCCCCCCCC[n+]1cccc2ccccc21.[Br-] [1-alkyl-3-quinolinium bromides 10]	278.7

same assay, conditions: 24 h at 37° C.

Structure (SMILES)	MIC [µM]
CCCCCCCCCC[n+]1cccc2ccccc21.[Br-] [1-alkyl-3-quinolinium bromides 10]	223
CCCCCCCCCCCCCCCC[n+]1cccc2ccccc21.[Br-] [1-alkyl-3-quinolinium bromides 16]	140.48

system: K. aerogenes NCTC 7427; experiment: Broth microdilution MIC/MBC; type: cell-based; details: K. aerogenes NCTC 7427, 99.9% killing
Method: as §1

Structure (SMILES)	MBC [µM]
CCCCCCCCCC[n+]1cccc2ccccc21.[Br-] [1-alkyl-3-quinolinium bromides 10]	167.22
CCCCCCCCCCCCCCCC[n+]1cccc2ccccc21.[Br-] [1-alkyl-3-quinolinium bromides 16]	35.12

same assay, conditions: K. aerogenes NCTC 7427, 24 h at 37° C.

Structure (SMILES)	MIC [µM]
CCCCCCCCCC[n+]1cccc2ccccc21.[Br-] [1-alkyl-3-quinolinium bromides 10]	55.74
CCCCCCCCCCCCCCCC[n+]1cccc2ccccc21.[Br-] [1-alkyl-3-quinolinium bromides 16]	35.12

system: S. epidermidis ATCC 35984; experiment: Biofilm assay (Calgary Biofilm Device), MBEC; type: cell-based; details: S. epidermidis ATCC 35984 24 h biofilm, 24 h challenge
Method: (§2) Biofilms of each test organism were grown in the Calgary Biofilm Device (commercially available as the MBEC Assay™ for Physiology & Genetics, Innovotech Inc., Edmonton, Alberta, Canada). The device, a micro-titre plated based assay, consists of two parts; a microtitre plate containing the inoculated test medium and a polystyrene lid with 96 identical pegs on which the microbial biofilm forms under gyrorotary incubation. The biofilm assay was conducted according to the MBEC™ assay protocol as supplied by the manufacturer, with slight modifications. Inocula of each test organism were prepared in MHB as described above and adjusted to provide a final inoculum density of ˜10^7 CFU ml^−1 (as confirmed by viable count). 150 μl of the inoculated media was transferred to each well of the 96-well microtitre plate and the assay plate lid, bearing 96 pegs was placed into the microtitre plate. The MBEC assay plates were placed in a gyrorotary incubator (37° C., 95% relative humidity) for 24 h to permit growth and comparison of 24 h biofilms of each test strain. Positive and negative growth controls were included in each plate (6 replicates). Initial and 24 h planktonic viable counts were measured, as were 24 h biofilm counts, expressed as CFU peg^−1, according to manufacturers instructions. After 24 h, the peg lid of the MBEC assay plate was gently rinsed three times. After rinsing, the peg lid of the MBEC assay was transferred to a ‘challenge’ plate. Serial dilutions of each imidazolium salt were prepared in 200 μl of MHB containing various concentrations of IL in each well. Positive growth control and sterility control were included in each assay plate. […] Biofilms were dislodged into recovery media by sonication for 5 minutes and the peg lid discarded. The recovery plate is incubated overnight and visually checked after 24 h for turbidity. In addition, optical density measurements for each plate were recorded at 550 nm. Clear wells were taken as evidence of biofilm eradication and the MBEC value was assigned as the lowest concentration at which no growth was observed after 24 h incubation. Plates were incubated for a further 24 h to confirm biofilm eradication concentrations.

Structure (SMILES)	MBEC [µM]
CCCCCCCCCC[n+]1cccc2ccccc21.[Br-] [1-alkyl-3-quinolinium bromides 10]	896
CCCCCCCCCCCCCCCC[n+]1cccc2ccccc21.[Br-] [1-alkyl-3-quinolinium bromides 16]	561.92

system: P. mirabilis NCTC 12442; experiment: Biofilm assay (Calgary Biofilm Device), MBEC; type: cell-based; details: P. mirabilis NCTC 12442 24 h biofilm, 24 h challenge
Method: as §2

Structure (SMILES)	MBEC [µM]
CCCCCCCCCC[n+]1cccc2ccccc21.[Br-] [1-alkyl-3-quinolinium bromides 10]	3584
CCCCCCCCCCCCCCCC[n+]1cccc2ccccc21.[Br-] [1-alkyl-3-quinolinium bromides 16]	2247.68

system: S. aureus PIII; experiment: Biofilm assay (Calgary Biofilm Device), MBEC; type: cell-based; details: S. aureus PIII 24 h biofilm, 24 h challenge
Method: as §2

Structure (SMILES)	MBEC [µM]
CCCCCCCCCC[n+]1cccc2ccccc21.[Br-] [1-alkyl-3-quinolinium bromides 10]	1956
CCCCCCCCCCCCCCCC[n+]1cccc2ccccc21.[Br-] [1-alkyl-3-quinolinium bromides 16]	1123.84

system: E. coli NCTC 8196; experiment: Biofilm assay (Calgary Biofilm Device), MBEC; type: cell-based; details: E. coli NCTC 8196 24 h biofilm, 24 h challenge
Method: as §2

Structure (SMILES)	MBEC [µM]
CCCCCCCCCC[n+]1cccc2ccccc21.[Br-] [1-alkyl-3-quinolinium bromides 10]	3584
CCCCCCCCCCCCCCCC[n+]1cccc2ccccc21.[Br-] [1-alkyl-3-quinolinium bromides 16]	561.92

system: P. aeruginosa PA01; experiment: Biofilm assay (Calgary Biofilm Device), MBEC; type: cell-based; details: P. aeruginosa PA01 24 h biofilm, 24 h challenge
Method: as §2

Structure (SMILES)	MBEC [µM]
CCCCCCCCCC[n+]1cccc2ccccc21.[Br-] [1-alkyl-3-quinolinium bromides 10]	1792
CCCCCCCCCCCCCCCC[n+]1cccc2ccccc21.[Br-] [1-alkyl-3-quinolinium bromides 16]	1123.84

system: C. tropicalis NCTC 7393; experiment: Biofilm assay (Calgary Biofilm Device), MBEC; type: cell-based; details: C. tropicalis NCTC 7393 24 h biofilm, 24 h challenge
Method: as §2

Structure (SMILES)	MBEC [µM]
CCCCCCCCCC[n+]1cccc2ccccc21.[Br-] [1-alkyl-3-quinolinium bromides 10]	1792
CCCCCCCCCCCCCCCC[n+]1cccc2ccccc21.[Br-] [1-alkyl-3-quinolinium bromides 16]	561.92

system: E-MRSA 15; experiment: Biofilm assay (Calgary Biofilm Device), MBEC; type: cell-based; details: E-MRSA 15 24 h biofilm, 24 h challenge
Method: as §2

Structure (SMILES)	MBEC [µM]
CCCCCCCCCC[n+]1cccc2ccccc21.[Br-] [1-alkyl-3-quinolinium bromides 10]	1792
CCCCCCCCCCCCCCCC[n+]1cccc2ccccc21.[Br-] [1-alkyl-3-quinolinium bromides 16]	1123.84

system: B. cereus; experiment: Biofilm assay (Calgary Biofilm Device), MBEC; type: cell-based; details: B. cereus 24 h biofilm, 24 h challenge
Method: as §2

Structure (SMILES)	MBEC [µM]
CCCCCCCCCC[n+]1cccc2ccccc21.[Br-] [1-alkyl-3-quinolinium bromides 10]	3584
CCCCCCCCCCCCCCCC[n+]1cccc2ccccc21.[Br-] [1-alkyl-3-quinolinium bromides 16]	1123.84

system: K. aerogenes NCTC 7427; experiment: Biofilm assay (Calgary Biofilm Device), MBEC; type: cell-based; details: K. aerogenes NCTC 7427 24 h biofilm, 24 h challenge
Method: as §2

Structure (SMILES)	MBEC [µM]
CCCCCCCCCC[n+]1cccc2ccccc21.[Br-] [1-alkyl-3-quinolinium bromides 10]	4568
CCCCCCCCCCCCCCCC[n+]1cccc2ccccc21.[Br-] [1-alkyl-3-quinolinium bromides 16]	561.92
